Common to all, as to format: cell-based
The test system of one assay is A549 cells. The assay is described as follows: Proliferation test (XTT) on A549 cells. As to conditions: 0 to 1000 nM, 4 days. The procedure: (§1) In order to check that the endocytosis of compound (7) DOX-GAL-AF is followed by release of the drug in the intracellular medium, proliferation tests were performed on Hela and A549 cells incubated in the presence of increasing concentrations (0 to 1000 nM) of doxorubicin (DOX), compound (5) (DOX-GAL) and compound (7) (DOX-GAL-AF) for 4 days.
(§2) The cell proliferation kit II (XTT; Roche) was used to evaluate the cellular proliferation. The kit was used following the manufacturer's recommendations.
(§3) In brief, 3×10^3 cells/well were placed on 96 culture plates and then in 100 μl of medium,
(§4) The cells were cultured as previously indicated.
(§5) The cells were cultured for 24 hours before addition of the compounds tested in the indicated concentration.
(§6) After 4 days of treatment, 50 μl of XTT marking mixture were added to the well. The cells were then incubated for 4 hours at 37° C. before the absorbance was determined at 480 nm.
(§7) In order to check that the enzymatic activation of compound (7) DOX-GAF-AF can effectively take place in the cellular environment, cytotoxicity tests were repeated in a culture medium previously supplemented with β-galactosidase (E. coli) (40 U·mL^−1) (curves in dotted lines).
(Tetrazolium assays rely on reduction of a dye to a coloured formazan, in cell work by metabolically active cells.)

A further assay concerns Hela cells. The assay is described as follows: Proliferation test (XTT) on Hela cells. As to conditions: 0 to 1000 nM, 4 days. The protocol: as §1, §2, §3, §4, §5, §6, §7
Assay [1] deals with A549 cells expressing little or none of these receptors. The experiment in a line: Internalization monitored by confocal microscopy (doxorubicin fluorescence) in A549 cells. As to conditions: 10 μM. The protocol:
(§8) Compound (7) was tested on two cell lines, the HeLa cells, expressing the folic acid receptor (FR), and the A549 cells expressing little or none of these receptors.
(§9) The HeLa and A549 cells were cultured in RPMI 1640 medium supplemented with 10% fetal calf serum (InVitrogen) at 37° C. in an atmosphere containing 5% CO2.
(§10) For confocal microscopy experiments, the cells were cultured in a glass-bottomed bowl.
(§11) The cells were incubated for 1 hour in the presence or absence of 1 μm of folic acid before being treated with either a buffer solution (control), or doxorubicin at 10 μM, or with a doxorubicin-galactose (DOX-GAL) conjugate, compound (5), in a concentration of 10 μM, or compound (7) (DOX-GAL-AF) in a concentration of 10 μM, or compound (7) in the presence of folic acid with respective concentrations of 10 μM.
(§12) After treatment, the cells were rinsed with PBS and fixed with a PBS-3.7% formaldehyde solution for 20 minutes, at room temperature. […]
(§13) The internalization by endocytosis of doxorobucin of the compounds (5) and (7) and of compound (7) in the presence of folic acid (AF) was monitored by confocal microscopy using the fluorescence of doxorubicin in the Hela cells and in the A549 cells.

Assay [2] relates to HeLa cells, expressing the folic acid receptor (FR). The experiment in a line: Internalization monitored by confocal microscopy (doxorubicin fluorescence) in HeLa cells. The conditions noted are these: 10 μM. The procedure:
as §8, §9, §10, §11, §12, §13

As for `COc1cccc2c1C(=O)c1c(O)c3c(c(O)c1C2=O)C[C@@](O)(C(=O)CO)C[C@@H]3O[C@H]1C[C@H](N)[C@H](O)[C@H](C)O1` [doxorubicin], the “toxicity / inhibition of proliferation (in words)” value in the assay on A549 cells is given as “inhibits the proliferation of these two lines”. Further, the “inhibition of proliferation (in words)” value with Hela cells is “inhibits the proliferation of these two lines”. The “internalization by endocytosis (fluorescence of doxorubicin, confocal microscopy)” value in assay [1] and in assay [2] was “penetrates non-specifically through the membranes of the two cell lines” each time.
Regarding `C#CCC(OC(=O)NC1CC(O[C@H]2C[C@](O)(C(=O)CO)Cc3c(O)c4c(c(O)c32)C(=O)c2c(OC)cccc2C4=O)OC(C)C1O)c1ccc(O[C@@H]2OC(CO)[C@H](O)C(O)C2O)c([N+](=O)[O-])c1` (some centres unmarked) [Compound 5], the “toxicity / inhibition of proliferation (in words)” value with A549 cells is recorded as “ineffective on the two cell lines”. In the assay with Hela cells, the “inhibition of proliferation (in words)” value was “ineffective on the two cell lines”. Further, the “internalization by endocytosis (fluorescence of doxorubicin, confocal microscopy)” value in assay [1] and in assay [2] was “not internalized in any of the cell lines” in each case.
